In patent US20240246935A1 (Plexium, Inc., priority 2021, published 2024):

Columns and labels:
[1] = molecular target: human E3 ligase component cereblon (CRBN) (Homo sapiens (Human), UniProt Q96SW2); assay: Cereblon (CRBN) target engagement, NanoBRET TE Intracellular E3 Ligase Assay in transfected HEK-293T cells; settings: read-out: CRBN Binding EC50
In short: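 Live HEK-293T cells co-transfected overnight with NanoLuc-CRBN (CRBN at NanoLuc C-terminus) and DDB1 vectors (10:990 ng) were given CRBN tracer and an 11-point compound series for 2 h at 37° C. BRET read at 450/610 nm with extracellular NanoLuc inhibitor present; IC50 from four-parameter logistic fit.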

[2] = molecular target: GSPT1 (Homo sapiens (Human), UniProt P15170+Q96SW2); assay: GSPT1 reporter degradation assay (HEK293 hGSPT1 HiBiT-tagged cells); assay type: cell-based; settings: 24 hour incubation
Chain of GSPT1 (P15170 whole entry): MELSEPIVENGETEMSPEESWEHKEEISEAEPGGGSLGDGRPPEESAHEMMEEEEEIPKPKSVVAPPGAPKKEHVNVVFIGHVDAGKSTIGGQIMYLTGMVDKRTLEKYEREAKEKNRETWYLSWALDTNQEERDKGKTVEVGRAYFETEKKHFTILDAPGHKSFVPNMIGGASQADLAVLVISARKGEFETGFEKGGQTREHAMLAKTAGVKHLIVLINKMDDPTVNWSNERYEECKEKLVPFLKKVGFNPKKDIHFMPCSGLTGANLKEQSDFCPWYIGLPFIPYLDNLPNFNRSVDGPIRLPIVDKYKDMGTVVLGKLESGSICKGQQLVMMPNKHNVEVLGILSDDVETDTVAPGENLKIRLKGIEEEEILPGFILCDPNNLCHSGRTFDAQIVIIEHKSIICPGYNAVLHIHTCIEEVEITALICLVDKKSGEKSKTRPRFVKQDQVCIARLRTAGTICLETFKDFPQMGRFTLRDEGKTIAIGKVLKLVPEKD
Chain of GSPT1 (Q96SW2 whole entry): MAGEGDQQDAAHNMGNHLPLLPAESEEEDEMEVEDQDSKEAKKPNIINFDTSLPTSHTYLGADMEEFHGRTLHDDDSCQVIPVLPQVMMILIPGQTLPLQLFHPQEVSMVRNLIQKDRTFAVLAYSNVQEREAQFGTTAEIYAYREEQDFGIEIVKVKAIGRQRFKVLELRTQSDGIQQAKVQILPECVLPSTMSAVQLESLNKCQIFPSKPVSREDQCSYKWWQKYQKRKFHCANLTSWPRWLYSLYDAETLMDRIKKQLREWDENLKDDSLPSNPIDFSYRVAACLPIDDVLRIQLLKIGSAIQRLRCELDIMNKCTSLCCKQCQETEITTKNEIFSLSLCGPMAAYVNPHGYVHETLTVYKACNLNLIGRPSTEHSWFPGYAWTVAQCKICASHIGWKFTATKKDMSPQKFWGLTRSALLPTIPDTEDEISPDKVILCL
Chain of GSPT1 (Q16531 whole entry partner): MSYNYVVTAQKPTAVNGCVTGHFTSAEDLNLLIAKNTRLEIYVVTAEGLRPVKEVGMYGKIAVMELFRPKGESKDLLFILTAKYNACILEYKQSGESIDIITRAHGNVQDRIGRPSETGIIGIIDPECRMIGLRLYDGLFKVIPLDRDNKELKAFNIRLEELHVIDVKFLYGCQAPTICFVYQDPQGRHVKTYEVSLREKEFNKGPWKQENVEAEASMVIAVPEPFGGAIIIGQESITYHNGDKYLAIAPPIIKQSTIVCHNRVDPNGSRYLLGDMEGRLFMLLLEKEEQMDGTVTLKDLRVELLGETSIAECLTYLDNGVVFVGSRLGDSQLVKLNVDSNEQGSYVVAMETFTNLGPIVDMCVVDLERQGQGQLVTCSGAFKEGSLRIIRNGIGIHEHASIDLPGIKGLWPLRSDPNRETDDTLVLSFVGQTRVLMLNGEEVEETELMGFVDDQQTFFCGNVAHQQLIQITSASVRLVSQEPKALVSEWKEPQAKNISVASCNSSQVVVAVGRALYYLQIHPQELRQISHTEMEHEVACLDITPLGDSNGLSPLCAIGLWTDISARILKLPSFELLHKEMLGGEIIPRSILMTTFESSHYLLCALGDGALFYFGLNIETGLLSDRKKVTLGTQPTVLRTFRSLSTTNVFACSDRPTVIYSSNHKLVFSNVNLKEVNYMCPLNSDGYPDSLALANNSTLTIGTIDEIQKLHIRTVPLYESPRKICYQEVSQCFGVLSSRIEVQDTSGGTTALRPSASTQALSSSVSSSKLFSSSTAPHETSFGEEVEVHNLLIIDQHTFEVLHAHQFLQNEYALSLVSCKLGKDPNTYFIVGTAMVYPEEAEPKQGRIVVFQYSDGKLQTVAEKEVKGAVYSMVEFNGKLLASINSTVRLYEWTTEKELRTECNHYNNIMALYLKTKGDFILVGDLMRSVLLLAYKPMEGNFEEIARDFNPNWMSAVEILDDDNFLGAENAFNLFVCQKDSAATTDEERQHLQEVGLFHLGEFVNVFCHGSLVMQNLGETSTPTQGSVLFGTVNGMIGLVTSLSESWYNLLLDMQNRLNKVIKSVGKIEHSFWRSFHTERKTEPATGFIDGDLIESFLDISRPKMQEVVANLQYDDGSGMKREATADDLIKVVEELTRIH
Description: HEK293_hGSPT1_HiBiT-tagged cells were generated using CRISPR-Cas12a technology. Briefly, ˜400,000 HEK293 cells were transiently co-transfected with precomplexed ribonuclear proteins (RNPs) consisting of 80 pmol of crRNA (IDT), 62 pmol of Cas12a protein (IDT), 3 μg of ssODN donor (IDT; AltR® modifications), 78 pmol of electroporation enhancer (IDT), and 200 ng of pMaxGFP (Lonza). The transfection was performed via nucleofection (Lonza, 4D-Nucleofector X-unit) using solution P3 and program CM-130 in a (20 μL) cuvette. Five days post-nucleofection, cells were single-cell-sorted for GFP+(transfected) cells by FACs in 96-well plates and clonally selected. Clones were screened and verified for the desired modification via targeted deep sequencing using gene-specific primers with partial Illumina adapter overhangs as previously described. In brief, clonal cell pellets were harvested, lysed, and used to generate gene-specific amplicons with partial Illumina adapters in PCR #1. Amplicons were indexed in PCR #2 and pooled with other targeted amplicons for other loci to create sequence diversity. Additionally, 10% PhiX sequencing control V3 (Illumina) was added to the pooled amplicon library prior to running the sample on a Miseq Sequencer System (Illumina) to generate paired 2×250 bp reads. Samples were demultiplexed using the index sequences, fastq files were generated, and NGS analysis was performed using CRIS.py. Final clones were authenticated using the PowerPlex fusion system (Promega) and tested negative for mycoplasma by the MycoAlert™Plus mycoplasma detection kit (Lonza).
Editing construct sequences and screening primers are outlined below (sequence from 5′ to 3′). hGSPT1Cas12acrRNA, CAGE635.GSPT1.g1: […] (SEQ ID NO: 4); CAGE635.g1.anti.ssODN: ttcctcacagtattgtgcagggtcatcaagaaaatgctta[…] CAGCCGCTCACgtcCttctctggaaccagtttcagaacttttccaattgcaatggtcttacctagaaatgaaattttaa (HiBiT tag and silent blocking modifications to prevent Cas12a recutting after integration are in upper case) (SEQ ID NO: 5); CAGE635.hGSPT1.DS.F: […] (SEQ ID NO: 6); CAGE635.hGSPT1.DS.R: GTGAA GTAGGCTTCTGCAGTC (SEQ ID NO: 7).
The GSPT1 degradation assay was carried out by harvesting the HEK 293T reporter cell lines and resuspending the cells in media formulated for reduced background fluorescence (FluoroBrite; Thermo Fisher). The respective cell lines were seeded at a density of 8,000 cells/well into white-opaque 384-well optical grade assay tissue culture plates (Greiner 781080-20). The cells were incubated overnight at 37° C. to allow for attachment to the assay plate. Dilutions of the compounds were prepared in DMSO from 10 mM compound stocks. Test compounds were added in a 10-point dilution series (typically 10 μM to […]) using a TECAN D300e Digital Dispenser with an upper limit of 0.5% final DMSO. Plates were centrifuged at 320×g for 2 minutes at room temperature, and subsequently incubated at 37° C.
After 24 hour incubation with the compounds, the plates were allowed to cool to room temperature for 10 minutes. 30 μL of HiBiT lytic buffer+1:50 HiBiT substrate Solution were added to each well. Plates were centrifuged at 320×g for 2 minutes at room temperature and then incubated with shaking at room temperature for 10 minutes covered with foil. Plates were read on a CLARIOstar microplate reader (BMG LabTech), measuring at 450 nm (donor emission) and 610 nm or 630 nm (acceptor emission). The DC50 values were determined by regression to best fit four-parameter logistic curves using GraphPad Prism.

Chain of human E3 ligase component cereblon (CRBN) (Q96SW2 whole entry): as the sequence (Q96SW2 whole entry) above
Chain of human E3 ligase component cereblon (CRBN) (Q16531 whole entry partner): as the sequence (Q16531 whole entry partner) above

What does the source list for `N#Cc1cc(Cl)ccc1C1CN([C@@H]2CCCC[C@@H]2Oc2ccc3c(c2)CN(C2CCC(=O)NC2=O)C3=O)C1` (mixture of isomers) [Compound 100, Rac-5-chloro-2-(1-((cis)-2-((2-(2,6-dioxopiperidin-3-yl)-1-oxoisoindolin-5-yl)oxy)cyclohexyl)azetidin-3-yl)benzonitrile]?
EC50 [1]: 25 nM; DC50 [2]: > 30000 nM

How did the EC50 [1] turn out when `O=C1CCC(N2Cc3cc(O[C@H]4CCCC[C@@H]4N4CC(c5ccc(F)cc5)C4)ccc3C2=O)C(=O)N1` (single isomer, unassigned) [Compound 50] was run?
Its EC50 is 4 nM.

What about the DC50 [2] of the same compound?
Its DC50 is > 30000 nM.

What does the source list for `O=C1CCC(N2Cc3cc(O[C@H]4CCCC[C@@H]4N4CC(c5ccccc5)C4)c(F)cc3C2=O)C(=O)N1` (single isomer, unassigned) [Compound 52]?
EC50 [1]: 11 nM; DC50 [2]: > 30000 nM

Which results are given for `O=C1CCC(N2Cc3c(ccc(O[C@H]4CCCC[C@@H]4N4CC(c5ccccc5)C4)c3F)C2=O)C(=O)N1` (single isomer, unassigned) [Compound 65]?
EC50 [1]: 52 nM; DC50 [2]: > 30000 nM

Which results are given for `O=C1CCC(N2Cc3c(ccc(O[C@H]4CCCC[C@@H]4N4CC(c5ccccc5)C4)c3F)C2=O)C(=O)N1` (single isomer, unassigned) [Compound 66]?
EC50 [1]: 24 nM; DC50 [2]: > 30000 nM

With `O=C1CCC(N2Cc3cc(O[C@H]4CCCC[C@@H]4N4CC(c5cccc(OC(F)(F)F)c5)C4)ccc3C2=O)C(=O)N1` (stereo partly drawn) [Compound 35, 3-(1-oxo-5-(((1S,2S)-2-(3-(3-(trifluoromethoxy)phenyl)azetidin-1-yl)cyclohexyl)oxy)isoindolin-2-yl)piperidine-2,6-dione] as the compound, how does the EC50 [1] read?
The EC50 was 17 nM.

And the DC50 [2]?
Its DC50 is > 30000 nM.

With `O=C1CCC(N2Cc3cc(O[C@H]4CCCC[C@@H]4N4CC(c5ccccc5OC(F)(F)F)C4)ccc3C2=O)C(=O)N1` (stereo partly drawn) [Compound 36, 3-(1-oxo-5-(((1S,2S)-2-(3-(2-(trifluoromethoxy)phenyl)azetidin-1-yl)cyclohexyl)oxy)isoindolin-2-yl)piperidine-2,6-dione] as the compound, how does the EC50 [1] read?
The EC50 was 31 nM.

What about the DC50 [2] of the same compound?
Its DC50 is > 30000 nM.

`O=C1CCC(N2Cc3cc(O[C@H]4CCCC[C@@H]4N4CC(c5cccc(F)c5F)C4)ccc3C2=O)C(=O)N1` (stereo partly drawn) [Compound 64, 3-(5-(((1S,2S)-2-(3-(2,3-difluorophenyl)azetidin-1-yl)cyclohexyl)oxy)-1-oxoisoindolin-2-yl)piperidine-2,6-dione] was tested. Which EC50 [1] did it give?
Its EC50 is 11 nM.

And the DC50 [2]?
Its DC50 is > 30000 nM.

Which EC50 [1] does the source give for `O=C1CCC(N2Cc3cc(O[C@H]4CCCC[C@@H]4N4CC(c5cccc(F)c5)C4)ccc3C2=O)C(=O)N1` (stereo partly drawn) [Compound 111, 3-(5-(((1S,2S)-2-(3-(3-fluorophenyl)azetidin-1-yl)cyclohexyl)oxy)-1-oxoisoindolin-2-yl)piperidine-2,6-dione] here?
Its EC50 is 6 nM.

And the DC50 [2]?
The DC50 was > 30000 nM.

What does the source list for `O=C1CCC(N2Cc3cc(O[C@H]4CCCC[C@@H]4N4CC(c5ccc(N6CCOCC6)cc5)C4)ccc3C2=O)C(=O)N1` (stereo partly drawn) [Compound 124, 3-(5-(((1S,2S)-2-(3-(4-morpholinophenyl)azetidin-1-yl)cyclohexyl)oxy)-1-oxoisoindolin-2-yl)piperidine-2,6-dione]?
EC50 [1]: 2 nM; DC50 [2]: > 30000 nM

`O=C1CC[C@@H](N2Cc3cc(O[C@H]4CCCC[C@@H]4N4CC(c5ccccc5)C4)ccc3C2=O)C(=O)N1` [Compound 125, (R)-3-(1-oxo-5-(((1S,2S)-2-(3-phenylazetidin-1-yl)cyclohexyl)oxy)isoindolin-2-yl)piperidine-2,6-dione] was tested. Which EC50 [1] did it give?
Its EC50 is 6 nM.

And the DC50 [2]?
Its DC50 is > 30000 nM.

With `O=C1CCC(N2Cc3cc(O[C@H]4CCCC[C@@H]4N4CC(c5ccccc5C(F)(F)F)C4)ccc3C2=O)C(=O)N1` (stereo partly drawn) [Compound 129, 3-(1-oxo-5-(((1S,2S)-2-(3-(2-(trifluoromethyl)phenyl)azetidin-1-yl)cyclohexyl)oxy)isoindolin-2-yl)piperidine-2,6-dione] as the compound, how does the EC50 [1] read?
Its EC50 is 17 nM.

And the DC50 [2]?
Its DC50 is > 30000 nM.

Which EC50 [1] does the source give for `O=C(O)CC(O)(CC(=O)O)C(=O)O.O=C1CCC(N2Cc3cc(O[C@H]4CCCC[C@@H]4N4CC(c5ccccc5)C4)ccc3C2=O)C(=O)N1` (stereo partly drawn) [Compound 130, 3-(1-oxo-5-(((1S,2S)-2-(3-phenylazetidin-1-yl)cyclohexyl)oxy)isoindolin-2-yl)piperidine-2,6-dione 2-hydroxypropane-1,2,3-tricarboxylate] here?
Its EC50 is 4 nM.

And the DC50 [2]?
Its DC50 is > 30000 nM.

For `O=C1CCC(N2Cc3cc(O[C@H]4CCCCC[C@@H]4N4CC(c5ccccc5)C4)ccc3C2=O)C(=O)N1` (stereo partly drawn) [Compound 131, 3-(1-oxo-5-(((1S,2S)-2-(3-phenylazetidin-1-yl)cycloheptyl)oxy)isoindolin-2-yl)piperidine-2,6-dione], which EC50 [1] is on record?
Its EC50 is 11 nM.

And the DC50 [2]?
The DC50 was > 30000 nM.

`O=C1CCC(N2Cc3cc(O[C@H]4CCCC[C@@H]4N4CC(c5ccc(O)cc5)C4)ccc3C2=O)C(=O)N1` (stereo partly drawn) [Compound 132, 3-(5-(((1S,2S)-2-(3-(4-hydroxyphenyl)azetidin-1-yl)cyclohexyl)oxy)-1-oxoisoindolin-2-yl)piperidine-2,6-dione] was tested. Which EC50 [1] did it give?
Its EC50 is 11 nM.

What about the DC50 [2] of the same compound?
The DC50 was > 30000 nM.

Which EC50 [1] does the source give for `O=C1CCC(N2Cc3cc(O[C@H]4CCCC[C@@H]4N4CC(c5ccccc5O)C4)ccc3C2=O)C(=O)N1` (stereo partly drawn) [Compound 133, 3-(5-(((1S,2S)-2-(3-(2-hydroxyphenyl)azetidin-1-yl)cyclohexyl)oxy)-1-oxoisoindolin-2-1)piperidine-2,6-dione] here?
Its EC50 is 14 nM.

What about the DC50 [2] of the same compound?
The DC50 was > 30000 nM.

What does the source list for `O=C1CCC(N2Cc3cc(O[C@H]4CCCC[C@@H]4N4CC(c5cccc(O)c5)C4)ccc3C2=O)C(=O)N1` (stereo partly drawn) [Compound 134, 3-(5-(((1S,2S)-2-(3-(3-hydroxyphenyl)azetidin-1-yl)cyclohexyl)oxy)-1-oxoisoindolin-2-yl)piperidine-2,6-dione]?
EC50 [1]: 12 nM; DC50 [2]: > 30000 nM
